These results are taken from ChEMBL document CHEMBL1201862, “PubChem BioAssay data set” (2004).

Common to all, as to assay: NCI anticancer screen, dose series, 48 h
The subject of experiment [1] is RXF 393.
In experiment [2] the test system is HOP-92.
For experiment [3], the system named is NCI-H23.
In experiment [4] the test system is RPMI-8226.
In experiment [5] the test system is PC-3.
For experiment [6], the system named is ACHN.
The test system of experiment [7] is HL-60.
For experiment [8], the system named is LOX IMVI.
The subject of experiment [9] is SK-MEL-28.
In experiment [10] the test system is Hs-578T.
Experiment [11] deals with HOP-62.
Experiment [12] relates to CCRF-CEM.
The subject of experiment [13] is UO-31.
Experiment [14] concerns HT-29.
For experiment [15], the system named is NCI-H522.
In experiment [16] the test system is HCT-116.
For experiment [17], the system named is IGROV-1.
The test system of experiment [18] is OVCAR-4.
Experiment [19] relates to TK-10.
In experiment [20] the test system is UACC-257.

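Protocol summary: plate cells (96-well), add compound at 5 concentrations, incubate 48 h, interpolate endpoints linearly. GI50 = concentration required for 50% inhibition of growth.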 Active and inactive are the calls of the source. Rule as the data show it: active = GI50 up to about 1.1 µM and inactive = higher.

Consider `COc1ccc2oc(=O)c(-c3nc4ccccc4o3)cc2c1`, for which the GI50 in experiment [1] is 53.3 µM (inactive); in [2], > 100 µM (inactive); in experiment [3], > 100 µM (inactive); in experiment [4], 98.2 µM (inactive); in experiment [5], > 100 µM (inactive); in [6] it was > 100 µM (inactive). Also, the GI50 is 29.9 µM (inactive) in experiment [7]; > 100 µM (inactive) in [8]; > 100 µM (inactive) in [9]; > 100 µM (inactive) in experiment [10]; 64.9 µM (inactive) in experiment [11]; > 100 µM (inactive) in [12]. In addition, the GI50 in experiment [13] was > 100 µM (inactive); in [14] it was > 100 µM (inactive); in experiment [15] it was 50.2 µM (inactive); in experiment [16], > 100 µM (inactive); in [17], > 100 µM (inactive); in experiment [18], > 100 µM (inactive). Further, the GI50 in experiment [19] and in experiment [20] was > 100 µM (inactive) in each case.

For `CCNC(=O)c1cc(/C=C/c2ccc([N+](=O)[O-])o2)nc2ccccc12`, the GI50 was 10.2 µM (inactive) in experiment [1]; > 22.4 µM (inactive) in experiment [2]; 16.9 µM (inactive) in experiment [3]; 29.4 µM (inactive) in experiment [4]; > 100 µM (inactive) in [5]; 2.26 µM (inactive) in experiment [6]. Further, the GI50 in experiment [7] was 2.75 µM (inactive); in experiment [8] it was 2.85 µM (inactive); in experiment [9] it was 5.32 µM (inactive); in [10] it was 63.7 µM (inactive); in [11] it was 19.6 µM (inactive); in [12] it was 3.18 µM (inactive). The GI50 in [13] is 50.5 µM (inactive); in experiment [14] it was 6.82 µM (inactive); in [15], 4.21 µM (inactive); in experiment [16] it was 5.4 µM (inactive); in experiment [17] it was 5.69 µM (inactive); in [18] it was > 100 µM (inactive). In addition, the GI50 in experiment [20] was 3.67 µM (inactive).

Take `CC1CC(=O)N(N(C)C)C2(C#N)C(=O)N=C(N)C12C#N` (configuration not stated): the GI50 is > 100 µM (inactive) in experiment [1]; > 100 µM (inactive) in experiment [2]; > 100 µM (inactive) in [3]; 35.4 µM (inactive) in experiment [4]; > 100 µM (inactive) in [5]; > 100 µM (inactive) in [6]. Besides, the GI50 in experiment [7] is 19.3 µM (inactive); in [8], > 100 µM (inactive); in experiment [10], > 100 µM (inactive); in experiment [11], > 100 µM (inactive); in experiment [12] it was 23.2 µM (inactive); in [13], > 100 µM (inactive). For the same compound, the GI50 in experiment [14] is > 100 µM (inactive); in experiment [15], 32.4 µM (inactive); in experiment [16] it was > 100 µM (inactive); in experiment [17], > 100 µM (inactive); in experiment [18] it was > 100 µM (inactive); in [19] it was > 100 µM (inactive). Further, the GI50 in [20] was > 100 µM (inactive).

`O=[N+]([O-])c1cccc(/C=N/N=c2\ccc3ccccc3[nH]2)c1O`: the GI50 was 2.07 µM (inactive) in [1]; 7.5 µM (inactive) in [2]; 1.82 µM (inactive) in experiment [3]; 1.37 µM (inactive) in [4]; 2.7 µM (inactive) in experiment [5]; 0.478 µM (active) in experiment [6]. For the same compound, the GI50 is 0.619 µM (active) in [7]; 1.47 µM (inactive) in [8]; 2.79 µM (inactive) in [9]; 16.2 µM (inactive) in [10]; 0.815 µM (active) in [11]; 0.175 µM (active) in [12]. The GI50 in [13] was 0.335 µM (active); in experiment [14] it was 0.632 µM (active); in experiment [15], 1.2 µM (inactive); in experiment [16], 0.526 µM (active); in experiment [17], 2.02 µM (inactive); in experiment [18], 1.07 µM (active). In addition, the GI50 in experiment [19] is 2.51 µM (inactive); in experiment [20] it was 2.28 µM (inactive).

Turning to `Cc1[nH]c(=O)nc(N/N=C/c2ccc(Cl)cc2)c1C(=O)Nc1ccc(Cl)cc1`, the GI50 in [1] was 23 µM (inactive); in [2], 28.8 µM (inactive); in [3], 30.7 µM (inactive); in experiment [4] it was 22.1 µM (inactive); in experiment [5], > 60.1 µM (inactive); in experiment [6] it was 54.8 µM (inactive). Moreover, the GI50 in experiment [7] was > 100 µM (inactive); in experiment [8], 14.9 µM (inactive); in [9] it was 27.4 µM (inactive); in [10] it was > 100 µM (inactive); in [11], 10.6 µM (inactive); in [12], > 66.7 µM (inactive). The GI50 in [13] was > 100 µM (inactive); in [14] it was 24.1 µM (inactive); in experiment [15], 27.3 µM (inactive); in experiment [16], 7.59 µM (inactive); in experiment [17] it was > 86.3 µM (inactive); in [18], 9.95 µM (inactive). Moreover, the results for the GI50 in [19] and in [20] were 27.6 µM (inactive) and 31 µM (inactive), respectively.

`COc1cc(S(=O)(=O)Nc2ccc(-c3csc(N4C(=O)C(Cl)C4c4cccs4)n3)cc2)ccc1Cl` (configuration not stated): the GI50 in experiment [1] was 23.5 µM (inactive); in experiment [2], 19.7 µM (inactive); in [3], 29.4 µM (inactive); in experiment [4] it was 26.9 µM (inactive); in experiment [5], > 100 µM (inactive); in experiment [6], > 100 µM (inactive). The GI50 was 39.1 µM (inactive) in experiment [7]; 2.43 µM (inactive) in [8]; > 100 µM (inactive) in experiment [9]; > 100 µM (inactive) in experiment [10]; > 100 µM (inactive) in experiment [11]; 4.1 µM (inactive) in experiment [12]. Further, the GI50 in experiment [13] was 84.3 µM (inactive); in experiment [14], > 100 µM (inactive); in experiment [15], 4.35 µM (inactive); in [16], 98.9 µM (inactive); in [17] it was 18.2 µM (inactive); in experiment [18], 21.6 µM (inactive). The GI50 in [20] was 28.1 µM (inactive).

`CCCCCCCCCCC[N+]1(Cc2ccccc2)CC2CCN(Cc3ccccc3)CC2C1` (configuration not stated): the GI50 in experiment [1] was 0.587 µM (active); in experiment [2], 0.451 µM (active); in [3] it was 0.181 µM (active); in experiment [4], 0.101 µM (active); in [5], 0.234 µM (active); in experiment [6], 1.17 µM (inactive). For the same compound, the GI50 is 0.106 µM (active) in experiment [7]; 0.382 µM (active) in experiment [8]; 0.665 µM (active) in experiment [9]; 0.354 µM (active) in experiment [10]; 0.818 µM (active) in experiment [11]; 0.261 µM (active) in [12]. Also, the GI50 in experiment [13] is 1.3 µM (inactive); in [14] it was 0.377 µM (active); in [15] it was 0.106 µM (active); in experiment [16] it was 0.284 µM (active); in [17], 0.429 µM (active); in [18], 0.679 µM (active). Also, the figures for the GI50 in experiment [19] and in experiment [20] were 1.29 µM (inactive) and 0.288 µM (active), respectively.

Turning to `Cc1nc2c(C)ccc([N+](=O)[O-])c2c(NCCCN(C)C)c1C`, the GI50 was 58.7 µM (inactive) in [1]; > 100 µM (inactive) in experiment [2]; > 75.9 µM (inactive) in [3]; 52.6 µM (inactive) in experiment [4]; 11.7 µM (inactive) in experiment [5]; > 100 µM (inactive) in experiment [6]. The GI50 was 24.9 µM (inactive) in [7]; 44.3 µM (inactive) in experiment [8]; 27.1 µM (inactive) in experiment [9]; 63 µM (inactive) in experiment [10]; > 43.9 µM (inactive) in experiment [11]; 51.6 µM (inactive) in experiment [12]. The GI50 in experiment [13] was > 100 µM (inactive); in experiment [14] it was 24.7 µM (inactive); in experiment [15], 26.9 µM (inactive); in [16] it was 74.6 µM (inactive); in experiment [17], > 100 µM (inactive); in [18], > 100 µM (inactive). In addition, the GI50 is > 41.6 µM (inactive) in experiment [19] and 23.3 µM (inactive) in experiment [20].

On to `CCOC(=O)Cn1c(=O)c2nc(SC)sc2n(-c2ccc(C)cc2)c1=S`, for which the GI50 in [1] is 22.8 µM (inactive); in experiment [2] it was 21.6 µM (inactive); in [3], > 49 µM (inactive); in experiment [4] it was > 100 µM (inactive); in [5], 38.1 µM (inactive); in experiment [6] it was 48.1 µM (inactive). The GI50 is > 100 µM (inactive) in experiment [7]; > 100 µM (inactive) in experiment [8]; > 100 µM (inactive) in experiment [9]; 19.2 µM (inactive) in experiment [10]; 20 µM (inactive) in [11]; > 100 µM (inactive) in [12]. Also, the GI50 in [13] was 48.6 µM (inactive); in [14] it was > 87.3 µM (inactive); in [15], 79.6 µM (inactive); in experiment [16], > 71.8 µM (inactive); in experiment [17] it was 55.3 µM (inactive); in [18], 10.2 µM (inactive). For the same compound, the GI50 in experiment [19] was 36.7 µM (inactive); in experiment [20] it was > 100 µM (inactive).

As for `C=C1C(OC2O[C@@H]3O[C@@]4(C)CC[C@H]5[C@H](C)CC[C@@H](C2=C)[C@@]35O4)O[C@@H]2O[C@@]3(C)CC[C@H]4[C@H](C)CC[C@@H]1[C@@]24O3` (some centres not stated), the GI50 in experiment [1], in experiment [2], in [3], in experiment [4], in experiment [5] and in experiment [6] was > 50 µM (inactive) in each case. In addition, the GI50 in experiment [7], in experiment [8], in experiment [9], in experiment [10], in [11] and in experiment [12] was > 50 µM (inactive) in each case. The GI50 in experiment [13], in experiment [14], in experiment [15], in [16], in [17] and in experiment [18] was > 50 µM (inactive) in each case. Further, the GI50 in experiment [19] and in experiment [20] was > 50 µM (inactive) in each case.
